The source of these data is paper PMC8362065, “Easily Available, Amphiphilic Diiron Cyclopentadienyl Complexes Exhibit in Vitro Anticancer Activity in 2D and 3D Human Cancer Cells through Redox Modulation Triggered by CO Release” (Chemistry (Weinheim an Der Bergstrasse, Germany), 2021).

Where two headings read alike, the source gives them in different places.

One may read the IC50 as the concentration needed to halve the response being measured.

Series [1] is described as follows: Stability in D2O, D2O/CD3OD and DMSO-d6/D2O at 37 °C by 1H NMR. It counts as physicochemical. The protocol:
A detailed study on the behaviour of a selection of the diiron complexes in aqueous media was undertaken. Experimental procedures are provided in the Experimental Section and in the Supporting Information, with data collected in Tables 3, S3 and S4. […] The octanol/water partition coefficients (log P ow) were measured by a UV/Vis method and fall in between 0 and −1, reflecting an amphiphilic or slightly hydrophilic character. […] Conversely, those complexes with aromatic groups (i. e., 1H‐indol‐6‐yl, 2‐naphthyl and bis‐benzyl in [2A]^+, [3G]^+, [4G]^+ and [5H]^+) are less soluble in water and display increased affinity for n‐octanol (log P ow≈0). The diiron compounds are inert in aqueous solution at room temperature, and undergo a slow degradation at 37 °C. Under such conditions, a variable amount (50 to 86 %; Table S3) of the starting material was detected by ^1H NMR in D2O or D2O/CD3OD mixtures after 72 h.[33] During this time, the precipitation of a brown solid was observed, which in one case (from a [2C]CF3SO3 solution) was separated and identified as γ‐Fe2O3 by Raman analysis. In addition, headspace GC analyses performed on 5 % MeOH aqueous solutions of the compounds maintained at 37 °C allowed the identification and quantitation of the carbon monoxide released over a 48 h period (Table S4). These facts indicate that the thermal degradation process in aqueous solution leads to the progressive disassembly of the organometallic scaffold.[16] The presumed, controlled release of the iron centres (converted to iron oxide, see above) and carbon monoxide are two aspects that deserve attention with reference to the biological activity: note that the decay of ferrocene drug candidates into Fe^II ions was previously associated to their cytotoxicity,[34] while the activity of various iron carbonyl complexes was correlated to CO dissociation in the physiological media.[35]
(§1) Stability in water (D2O) and cell culture medium. The procedures are described in the Supporting Information, and data are collected in Table S3.
(§2) Table S3. Stability of diiron complexes in D2O, D2O/CD3OD, DMSO-d6/D2O and cell culture medium (DMEM-
(§3) d/CD3OD) solution at 37 °C calculated by 1H NMR (Me2SO2 internal standard).
(§4) % starting material (72 h) % starting material
(§5) Compound D O D O/CD OD DMSO-d /D O DMEM-d
(§6) [a] X = I for the stability in D 2O, X = CF3SO3 for the stability in cell culture medium. [b] Stability in D 2O and […]

Series [2] is described as follows: Stability in cell culture medium (DMEM) at 37 °C by 1H NMR. It counts as physicochemical. The following applies: DMEM-d (6.6 % CD3OD). On the procedure:
Next, the stability of the diiron compounds in a cell culture medium (DMEM) solution at 37 °C, over a shorter time range (24 h), was assessed by ^1H NMR.
as §1, §2, §3, §4, §5, §6

Series [3] has as its system Human breast (MCF‐7) carcinoma cell line. The experiment in a line: MTT assay, 2D cell culture. The note with it: MCF‐7 cells, 72 h. It counts as cell-based. The protocol: (§7) Compounds [2B]BF4, [2C]CF3SO3, [2D]CF3SO3 and [3F]CF3SO3 were dissolved in water while the other compounds were dissolved in the minimum DMSO amount prior to cell culture testing. A calculated amount of the stock drug DMSO solution was added to the cell culture media to reach a final maximum DMSO concentration of 0.5 %, which had no effects on cell viability.
(§8) Cell cultures. Human colon (HCT‐15), pancreatic (PSN‐1) and breast (MCF‐7) carcinoma cell lines along with human melanoma cells (A375) were obtained from American Type Culture Collection (ATCC, Rockville, MD). Embryonic kidney HEK293 cells were obtained from the European Collection of Cell Cultures (ECACC, Salisbury, UK). Human ovarian 2008 cancer cells were kindly provided by Prof. G. Marverti (Dept. of Biomedical Science of Modena University, Italy). MCF‐7 ADR cells were kindly provided by Prof. N. Colabufo (Dept. Pharmacy, University of Bari, Italy). Cell lines were maintained in the logarithmic phase at 37 °C in a 5 % CO2 atmosphere using the following culture media containing 10 % fetal calf serum (Euroclone, Milan, Italy), antibiotics (50 units/mL penicillin and 50 μg/mL streptomycin) and 2 mM L‐glutamine: i) RPMI‐1640 medium (Euroclone, Milan, Italy) for PSN‐1, 2008, HCT‐15, MCF‐7 and MCF‐7 ADR cells; ii) DMEM for A375 and HEK293 cells.
(§9) MTT assay. The growth inhibitory effect towards tumour cells was evaluated by means of MTT assay as previously described.[57] Briefly, 3–8×10^3 cells/well, dependent upon the growth characteristics of the cell line, were seeded in 96‐well microplates in growth medium (100 μL). After 24 h, the medium was removed and replaced with a fresh one containing the compound to be studied at the appropriate concentration. Triplicate cultures were established for each treatment. After 24 or 72 h, each well was treated with 10 μL of a 5 mg/mL MTT saline solution, and following 5 h of incubation, 100 μL of a sodium dodecyl sulfate (SDS) solution in HCl 0.01 M were added. After an overnight incubation, cell growth inhibition was detected by measuring the absorbance of each well at 570 nm using a Bio‐Rad 680 microplate reader. Mean absorbance for each drug dose was expressed as a percentage of the control untreated well absorbance and plotted against drug concentration. IC50 values, the drug concentrations that reduce the mean absorbance at 570 nm to 50 % of those in the untreated control wells, were calculated by the four‐parameter logistic (4‐PL) model. Evaluation was based on means from at least four independent experiments.
In general terms: Tetrazolium dyes change colour on reduction, which living cells bring about.

In series [4] the test system is Human colon (HCT‐15) carcinoma cell line. The series can be described thus: MTT assay, 2D cell culture. It counts as cell-based. The note with it: HCT‐15 cells, 72 h. On the procedure: as §7, §8, §9
For series [5], the system named is Human ovarian 2008 cancer cells. The experiment in a line: MTT assay, 2D cell culture. The note with it: 2008 cells, 72 h. It counts as cell-based. On the procedure: as §7, §8, §9
Series [6] deals with Human pancreatic (PSN‐1) carcinoma cell line. The series can be described thus: MTT assay, 2D cell culture. It counts as cell-based. On the procedure: as §7, §8, §9
Series [7] deals with human melanoma cells (A375). The experiment in a line: MTT assay, 2D cell culture. It counts as cell-based. The note with it: 72 h. On the procedure:
as §7, §8, §9

In series [8] the test system is Embryonic kidney HEK293 cells. The series can be described thus: MTT assay, noncancerous cell line. The following applies: 72 h; for IC50: HEK293 noncancerous cells, MTT; for SI (selectivity index): IC50 in noncancerous HEK293 cells / average IC50 in cancer cells. It counts as cell-based, human. The protocol:
As one of the main drawbacks of chemotherapeutics is the toxic effect toward noncancerous cells, we measured the cytotoxicity of tested complexes against a noncancerous cell line (HEK293) and calculated the selectivity index (SI, defined as the ratio between the IC50 value in noncancerous cells and the corresponding average IC50 value related to cancer cells; Table 5).
as §7, §8, §9

Setting [9] is: PSN-1 cells, 24 h, read-out: IC50 (µM) ± SD.
[10] abbreviates: PSN‐1 cells, 72 h, read-out: IC50 (μM)±SD.

Regarding “[Fe2Cp2(CO)2(μ‐CO){μ‐CNBn2}]X [[5H]CF3SO3]”, the “% starting material (72 h)” value in series [1] (D2O) was “ca. 50%”; in series [1] (D2O/CD3OD 5:4 v/v), 65%; in series [1] (DMSO-d6/D2O 1:1 v/v) it was 89%. The “% starting material (24 h)” value in series [2] amounted to 75%. In addition, the IC50 in series [3] worked out at 36.2 ± 6.1 µM; in series [4], 32.5 ± 4.8 µM; in series [5], 37.4 ± 5.2 µM; in series [6] (setting [9]), 112 ± 2.4 µM; in series [6] (setting [10]), 33.7 ± 4.2 µM; in series [7] it was 30.8 ± 5.1 µM. It took 98.3 ± 4.2 µM to reach half-maximal inhibition in series [8] (IC50). The “SI (selectivity index)” value in series [8] is 2.8.
As to “[Fe2Cp2(CO)2(μ‐CO){μ‐CNEt(2‐naphthyl)}]BF4 [[4G]BF4]”, the entries for the “% starting material (72 h)” value in series [1] (D2O/CD3OD 5:4 v/v) and in series [1] (DMSO-d6/D2O 5:3 v/v) were 51% and 42%, respectively. Further, in series [2], the “% starting material (24 h)” value is reported as 85%. For the same substance, the IC50 in series [3] is 21.4 ± 3.6 µM; in series [4], 22.9 ± 5.8 µM; in series [5], 38.8 ± 6.9 µM; in series [6] (setting [9]), 69.5 ± 2.1 µM; in series [6] (setting [10]), 25.6 ± 4.5 µM; in series [7], 26.2 ± 5.6 µM. Also, inhibition in series [8] was half-maximal at 89.5 ± 4.5 µM (IC50). In series [8], the “SI (selectivity index)” value is on record as 3.3.
Turning to “[Fe2Cp2(CO)2(μ‐CO){μ‐CNMe(1H‐indol‐6‐yl)}]CF3SO3 [[2A]CF3SO3]”, the “% starting material (72 h)” value in series [1] (D2O/CD3OD 2:1 v/v) is 55%; in series [1] (DMSO-d6/D2O 1:1 v/v), 89%. In series [2], the “% starting material (24 h)” value was found to be 86%. Besides, the IC50 in series [3] came out at 63.2 ± 5.5 µM; in series [4], 69.5 ± 6.7 µM; in series [5], 55.5 ± 4.8 µM; in series [6] (setting [9]), 144 ± 16 µM; in series [6] (setting [10]), 54.3 ± 6.2 µM; in series [7], 50.8 ± 6.1 µM. In series [8], half-maximal inhibition (IC50) required 136 ± 6.4 µM. In series [8], the “SI (selectivity index)” value stood at 2.3.
Turning to “[Fe2Cp2(CO)2(μ‐CO){μ‐CNMe(4‐C6H4OMe)}]CF3SO3 [[2D]CF3SO3]”, in series [1] (D2O), the “% starting material (72 h)” value was found to be 86%. For the same substance, in series [2], the “% starting material (24 h)” value came to 77%. For the same substance, the IC50 was found to be 14.3 ± 2.6 µM in series [3]; 15.6 ± 3.5 µM in series [4]; 21.3 ± 3.1 µM in series [5]; 35 ± 2 µM in series [6] (setting [9]); 16.2 ± 2.9 µM in series [6] (setting [10]); 15.5 ± 2.6 µM in series [7]. For the same substance, 94.3 ± 6.1 µM corresponded to half-maximal inhibition in series [8] (IC50). In series [8], the “SI (selectivity index)” value is reported as 5.6.
As to “[Fe2Cp2(CO)2(μ‐CO){μ‐CNMe(C6H11)}]X [[2C]CF3SO3]”, the “% starting material (72 h)” value in series [1] (D2O) is on record as 75%. In addition, in series [2], the “% starting material (24 h)” value was found to be 85%. Also, the IC50 in series [3] worked out at 17.3 ± 3.3 µM; in series [4], 9.2 ± 1.8 µM; in series [5], 28.4 ± 5.4 µM; in series [6] (setting [9]) it was 94.2 ± 3.8 µM; in series [6] (setting [10]) it was 15.3 ± 2.7 µM; in series [7] it was 16.8 ± 2.1 µM. The IC50 in series [8] came out at 62.5 ± 4.9 µM. Moreover, the “SI (selectivity index)” value in series [8] is recorded as 3.6.
As for “[Fe2Cp2(CO)2(μ‐CO){μ‐CNMe(CH2CHCH2)}]X [[3F]CF3SO3]”, the IC50 in series [3] is more than 100 µM; in series [4], more than 100 µM; in series [5], more than 100 µM; in series [6] (setting [9]), more than 200 µM; in series [6] (setting [10]) it was more than 100 µM; in series [7], more than 100 µM. In series [8], the IC50 is more than 100 µM.
“[Fe2Cp2(CO)2(μ‐CO){μ‐CNMe(CH2PO3Et2)}]X [[2B]BF4]”: the “% starting material (72 h)” value was found to be 85% in series [1] (D2O) and 81% in series [1] (D2O/CD3OD 2:1 v/v). The “% starting material (24 h)” value in series [2] came to 88%. In addition, the IC50 in series [3] is more than 100 µM; in series [4], more than 100 µM; in series [5], more than 100 µM; in series [6] (setting [9]), more than 200 µM; in series [6] (setting [10]), more than 100 µM; in series [7], more than 100 µM. Moreover, the 50% inhibitory concentration (IC50) in series [8] was more than 100 µM.
